Here are results for 1 compound from patent US12178825B2, “Method and compositions for forming a copper-containing complex and uses thereof” (COLD SPRING HARBOR LABORATORY, priority 2017, dated 2024).

Series [1] concerns ATP7B-knockdown HepG2 cells. Description: Copper-induced toxicity, MTT cell survival. It counts as cell-based. The settings on record: copper concentrations greater than 0.5 mM. Here is the method:
HepG2 cells purchased from ATCC were cultured in RPMI media containing 10% FBS, 5% CO2 at 37 C. Control (AG09319) and Wilson's disease patient-derived fibroblasts (GM00032, GM00033, GM05257, GM12158, GM05798 and GM11778) were obtained from Coriell Biorepository and cultured in DMEM, 10% FBS, 5% CO2 at 37° C.
For cell survival assays, 10,000 cells were seeded in a 96 well plate and cultured until fully confluent (90%). To these cells, ATP7B siRNAs or scrambled siRNA (negative control) purchased from Qiagen and Santa Cruz Biotechnology were transfected. Lipofectamine RNAiMAX reagent (Thermofischer) and siRNAs were diluted into a final volume of 100 μl in Opti-MEM (Gibco). The mixture was incubated at room temperature for 30 min, following which 800 μl of Opti-MEM was added to the mixture. The above transfection solution was overlaid onto cells at a final concentration of 5 nM siRNA. Transfection of HepG2 cells with scrambled siRNA served as negative control. Twelve hours after the transfection, complete media was added to each well. Following which, knockdown efficiency was checked (24 hours later) and cells were exposed to varying concentration of copper (0-1 mM) for 12 h and cell viability was determined using the MTT assay as previously described (37). […]

For a further series, the target named is MEK1 (Homo sapiens, UniProt Q02750). Description: Cu-binding assay with kinase. The following applies: read-out: Kd, copper binding to MEK1.
The target of series [2] is T1, PAK1 (Homo sapiens, UniProt Q13153). Description: Kinase activity assay (ADP-Glow, MBP substrate). It counts as biochemical. The following applies: in the presence of Cu(II). Here is the method:
In brief, recombinant PAK1 (20 nM) or recombinant MEK1 (20 nM) were incubated for 30 min in 180 μl of kinase buffer in the presence or absence of CuSO4 (5 μM). The activity of the kinase was monitored using MBP as substrate by ADP-Glow assay (Promega) as per user's manual.
For orientation: ADP-Glo first removes unused ATP, then detects ADP through luciferase.

The target in series [3] is T1, PAK1. Description: Cu-binding assay with kinase. The following applies: read-out: Kd, copper binding to PAK1. As for the experimental part: Direct binding assays were performed using radiolabelled copper (64 Cu^2+). Varying concentration of radiolabeled copper (0-10 uM) was incubated with recombinant PAK1 (100 nM). Excess copper was removed by running the samples through a desalting column. The amount of metal bound to the protein was quantitated directly by scintillation counting.

T1 sequence (Q13153 whole entry): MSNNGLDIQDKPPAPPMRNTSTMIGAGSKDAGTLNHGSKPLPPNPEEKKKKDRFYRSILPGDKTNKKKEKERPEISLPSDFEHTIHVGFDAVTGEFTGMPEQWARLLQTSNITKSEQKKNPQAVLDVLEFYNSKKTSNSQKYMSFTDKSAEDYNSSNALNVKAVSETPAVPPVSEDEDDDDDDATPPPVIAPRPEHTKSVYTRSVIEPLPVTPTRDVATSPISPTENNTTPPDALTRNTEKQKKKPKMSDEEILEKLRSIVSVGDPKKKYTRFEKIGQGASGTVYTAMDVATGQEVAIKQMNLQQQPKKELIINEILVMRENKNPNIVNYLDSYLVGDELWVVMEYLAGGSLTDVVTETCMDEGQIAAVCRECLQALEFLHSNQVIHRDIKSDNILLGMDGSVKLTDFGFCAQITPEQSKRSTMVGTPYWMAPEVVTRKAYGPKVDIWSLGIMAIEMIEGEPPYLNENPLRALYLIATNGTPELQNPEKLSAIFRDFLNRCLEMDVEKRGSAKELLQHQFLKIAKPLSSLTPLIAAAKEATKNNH
Chain of MEK1 (Q02750 whole entry): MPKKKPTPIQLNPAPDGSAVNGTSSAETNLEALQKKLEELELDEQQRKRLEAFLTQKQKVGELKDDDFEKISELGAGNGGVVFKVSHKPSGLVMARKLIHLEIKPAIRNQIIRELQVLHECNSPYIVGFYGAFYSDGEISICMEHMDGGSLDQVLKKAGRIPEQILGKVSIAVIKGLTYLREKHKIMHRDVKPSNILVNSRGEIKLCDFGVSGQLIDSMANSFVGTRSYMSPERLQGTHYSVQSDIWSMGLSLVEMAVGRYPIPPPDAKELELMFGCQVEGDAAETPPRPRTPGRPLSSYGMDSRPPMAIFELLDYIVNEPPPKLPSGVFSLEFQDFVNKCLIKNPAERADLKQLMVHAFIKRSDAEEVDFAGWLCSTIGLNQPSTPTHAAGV

Broadly, the Kd is the constant that tells how readily two partners part at equilibrium. As to `[Cu+2]` [copper], the “survival of ATP7B-KD1” value in series [1] is reported as “less than 20%”. Moreover, the Kd turned out to be 0.005 µM on MEK1 and 0.015 µM at PAK1 [3]. Besides, the “Vmax of PAK1 kinase activity” value on PAK1 [2] amounted to 834.4.
